Data reported in patent US9969768B1 (KING SAUD UNIVERSITY, priority 2017, dated 2018).

Columns and labels:
DPP-IV = target: T1, DPP-IV (Homo sapiens, UniProt P27487); assay: DPP-IV inhibition activity (fluorescence); assay type: biochemical; conditions: mean ± S.E.M., n = 6
T1 construct: purchased Sigma
Description: A […] reaction system containing DPP-IV (Sigma), a test compound, and 25 mmol/L 4-(2-hydroxyethyl)-1-piperazineethanesulfonic acid (HEPES) buffer (containing 140 mmol/L NaCl, 1% Bovine serum albumin (BSA) and 80 mmol/L MgCl2) was pre-incubated at room temperature for 10 minutes. The reaction was initiated by the addition of […], and the reaction mixture was then incubated at room temperature for 25-45 minutes. […] A negative control (no test compound) and a blank control (no enzyme) were run simultaneously. The test compounds were initially assayed in duplicate at a concentration of 10 mg/mL.

[1] = test system: alloxan-induced diabetic mice; assay: In vivo oral hypoglycemic activity, acute study; conditions: for % Change in SG: diabetic mice
Description: The percentage change in blood glucose levels in diabetic mice after oral administration of the test compounds, at a concentration of 200 μg/kg body weight, were determined at 2, 4, 6, and 24 hours.
The synthesized compounds were screened for hypoglycemic activity in vivo using the alloxan-induced diabetic mice model. For the acute study, animals were fasted overnight and the fasting blood serum glucose (SG) level was determined at 0 hours. Then the compounds were administered at a fixed dose of 200 μg/kg body weight orally (homogenized suspension in 0.5% carboxymethyl cellulose (CMC) with Tween 80). Animals in the vehicle group were given an equal amount of 0.5% CMC, while those in the control group were maintained as is. Blood samples were removed from all animals at 2, 4, 6 and 24 hours and percentage change in SG was calculated. See, Dunn, J. S., Letchie, N. G., “Experimental alloxan diabetes in the rat,” The Lancet 242(6265): 384-387 (1943); and Mourao R. H., Silva T. G., et al., “Synthesis and Biological Activity of Novel Acridinylidene and Benzylidene thiazolidinediones,” Eur. J. Med. Chem., 40: 1129-1133 (2005).

[2] = test system: alloxan-induced diabetic mice; assay: In vivo oral hypoglycemic activity, sub-acute study
Description: Study animals were fasted overnight, and the fasting SG levels calculated at 0 days. The test compounds were administered at a fixed dose of 200 μg/kg body weight orally (homogenized suspension in 0.5% CMC and permissible amounts of Tween 80) for 21 days at a fixed time. After 21 days, treatment was stopped and animals were left for a rest period of 7 days. Animals in the vehicle group were given an equal amount of 0.5% CMC, while those in the control group were maintained as is. During the study, blood samples were removed from all animals at 7, 14, 21 and 28 days, and the percentage change in SG was calculated. The data obtained were analyzed by one-way ANOVA followed by the Dunnett test. The results were expressed as mean±standard error of mean (SEM) for each group, while p<0.01 or p<0.05 was considered to be statistically significant. The percentage changes in blood glucose levels after oral administration, at 200 μg/kg body weight, were evaluated, and are reported in Table 5.

PPAR = PPAR agonist activity, PPRE-Luc dual luciferase reporter in HepG2 cells; assay type: cell-based; conditions: mean ± S.E.M., n = 6
Description: HepG2 cells were cultured in low glucose Dulbecco's Modified Eagle's medium (DMEM) supplemented with 100 U/mL streptomycin and penicillin. One day prior to transfection, the cells were plated in 96-well plates at 1.5×10^4 cells per well. After reaching 70% confluence, plasmid peroxisome proliferator responsive element-luciferase (PPRE-Luc) with firefly luciferase reporter gene and the control plasmid phRL-TK with renilla luciferase reporter gene were transfected into the cells. After 24 hours, the medium was replaced with either fresh medium (negative control) or fresh medium containing a test compound (10 mg/mL) or pioglitazone (positive control). Non-transfected cells were used as blank. After a further 24 hours, the expression of luciferases was measured using the Dual Luciferase Reporter Gene Assay Kit (Promega). The percent activation (T %) was calculated as [(L1sample−L1Blank)/(L1Negative−L1Blank)]/[(L2Sample−L2Blank)/(L2Negative−L2Blank)]×100%, where L1 represents the value for the value for firefly luciferase and L2 the value for Renilla luciferase. Xing-hua Z., Jufang Y., LiFan, W., Dacheng Y., “Synthesis and antidiabetic activity of β-acetamido ketones,” Acta Pharmaceutica Sinica 1(2):100-105 (2011).

[3] = target: α-Glucosidase from Saccharomyces cerevisiae; assay: α-Glucosidase inhibitory activity (chromogenic method); assay type: biochemical; conditions: mean ± S.E.M., n = 6
Description: The α-Glucosidase inhibitory activity of each compound was determined according to the chromogenic method described by Chapdelaine et al with slight modifications. See, Chapdelaine P., Tremblay R. R., Dube, J. Y., “P-Nitrophenol-alpha-D-gluco-pyranoside as substrate for measurement of maltase activity in human semen,” Clin. Chem., 24: 208-211 (1978). α-Glucosidase from Saccharomyces cerevisiae and substrate solution […] (PNPG) were prepared with 0.1 mol L^−1 of Na-phosphate buffer (pH 6.8). The inhibitors were reconstituted in […] phosphate buffer in a 96-well microplate and incubated with […] α-Glucosidase at 37° C. for 15 minutes, and then 30 μL substrate was added. After incubation with substrate for 5 minutes, release of p-nitrophenol was measured at 405 nm by spectrophotometry. Percentage of enzyme inhibition was calculated according to {1−(Asample−Ablank)/Acontrol}×100, where Asample represents absorbance of test samples, Acontrol represents absorbance of solution without sample, and A blank represents absorbance in presence of solution without substrate.

[4] = 2 h after 200 μg/kg body weight orally
[5] = 4 h after 200 μg/kg body weight orally
[6] = 6 h after 200 μg/kg body weight orally
[7] = 24 h after 200 μg/kg body weight orally
[8] = 7 day, 200 μg/kg body weight orally daily
[9] = 7 days rest period after 21 days of treatment, 200 μg/kg orally
[10] = 14 day, 200 μg/kg body weight orally daily
[11] = 21 day, 200 μg/kg body weight orally daily

T1 sequence (P27487 whole entry, species assumed): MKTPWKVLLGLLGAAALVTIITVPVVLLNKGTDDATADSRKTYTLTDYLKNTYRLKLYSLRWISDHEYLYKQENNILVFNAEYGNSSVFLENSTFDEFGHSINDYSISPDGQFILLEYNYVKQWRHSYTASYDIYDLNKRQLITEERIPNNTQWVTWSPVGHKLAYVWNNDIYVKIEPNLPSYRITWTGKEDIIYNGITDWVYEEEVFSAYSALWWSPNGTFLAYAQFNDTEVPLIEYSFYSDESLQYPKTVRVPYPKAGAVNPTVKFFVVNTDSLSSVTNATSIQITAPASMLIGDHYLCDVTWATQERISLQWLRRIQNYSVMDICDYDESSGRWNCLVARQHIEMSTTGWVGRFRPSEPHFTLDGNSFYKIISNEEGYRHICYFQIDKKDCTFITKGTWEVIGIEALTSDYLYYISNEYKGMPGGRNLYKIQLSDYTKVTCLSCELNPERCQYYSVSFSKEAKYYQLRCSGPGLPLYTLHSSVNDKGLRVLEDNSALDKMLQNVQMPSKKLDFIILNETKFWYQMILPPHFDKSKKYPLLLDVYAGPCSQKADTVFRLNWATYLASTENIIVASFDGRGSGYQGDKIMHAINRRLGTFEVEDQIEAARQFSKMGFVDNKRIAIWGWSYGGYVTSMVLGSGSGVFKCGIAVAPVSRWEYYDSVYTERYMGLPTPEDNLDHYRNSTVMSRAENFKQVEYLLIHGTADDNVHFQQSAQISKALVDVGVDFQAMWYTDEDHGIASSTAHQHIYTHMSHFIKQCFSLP

Compound: C[C@H]1O[C@H](O[C@H]2[C@H](O)[C@@H](O)[C@@H](O[C@H]3[C@H](O)[C@@H](O)C(O)O[C@@H]3CO)O[C@@H]2CO)[C@H](O)[C@@H](O)[C@@H]1N[C@H]1C=C(CO)[C@@H](O)[C@H](O)[C@H]1O (stereo partly shown) [Acarbose, reference compound]
- IC50 (DPP-IV): 176 µM
- % Change in SG [1, 4]: −29.23%
- % Change in SG [1, 5]: −27.87%
- % Change in SG [1, 6]: −20.17%
- % Change in SG [1, 7]: −22.39%
- % Change in SG [2, 8]: −18.29%
- % Change in SG [2, 9]: −27.65%
- % Change in SG [2, 10]: −24.55%
- % Change in SG [2, 11]: −31.78%

Compound: COC(=O)[C@]12CCC(C)(C)C[C@H]1C1=CC[C@@H]3[C@@]4(C)CCC(=O)C(C)(C)[C@@H]4CC[C@@]3(C)[C@]1(C)CC2 [Compound 1, 3-oxo-oleanolic acid methyl ester]
- IC50 (DPP-IV): 0.091 ± 0.0009 µM
- IC50 (PPAR): 0.12 ± 0.004 µM
- IC50 [3]: 1.7 ± 0.03 µM
- % Change in SG [1, 4]: −69.40%
- % Change in SG [1, 5]: −71.89%
- % Change in SG [1, 6]: −79.32%
- % Change in SG [1, 7]: −73.29%
- % Change in SG [2, 8]: −59.76%
- % Change in SG [2, 9]: −81.20%
- % Change in SG [2, 10]: −68.78%
- % Change in SG [2, 11]: −84.65%

Compound: CC1(C)CC[C@]2(C(=O)O)CC[C@]3(C)C(=CC[C@@H]4[C@@]5(C)CC[C@H](O)C(C)(C)[C@@H]5CC[C@]43C)[C@@H]2C1 [Oleanolic acid, reference compound]
- IC50 (PPAR): 14.9 µM
- % Change in SG [1, 4]: −40.79%
- % Change in SG [1, 5]: −48.66%
- % Change in SG [1, 6]: −52.17%
- % Change in SG [1, 7]: −51.01%
- % Change in SG [2, 8]: −10.56%
- % Change in SG [2, 9]: −30.32%
- % Change in SG [2, 10]: −20.35%
- % Change in SG [2, 11]: −37.68%

Compound: CCc1ccc(CCOc2ccc(CC3SC(=O)NC3=O)cc2)nc1 (stereo not shown) [Pioglitazone, reference compound]
- % Change in SG [1, 4]: −32.16%
- % Change in SG [1, 5]: −22.45%
- % Change in SG [1, 6]: −12.34%
- % Change in SG [1, 7]: −13.28%
- time of maximum activity post-administration ([1]; acute study, 200 μg/kg orally): 2 h
- % Change in SG [2, 8]: −11.23%
- % Change in SG [2, 9]: −43.45%
- % Change in SG [2, 10]: −18.34%
- % Change in SG [2, 11]: −50.39%

Compound: methyl-2-{4-pyridylidene}-3-oxo-18β-Olean-12-en-28-oate [Compound 2]
- % Change in SG [1, 4]: −74.70%
- % Change in SG [1, 5]: −81.67%
- % Change in SG [1, 6]: −84.30%
- % Change in SG [1, 7]: −80.78%
- % Change in SG [2, 8]: −62.35%
- % Change in SG [2, 9]: −86.25%
- % Change in SG [2, 10]: −71.78%
- % Change in SG [2, 11]: −87.54%

Compound: methyl-2-{(4-pyridyl)-N-morpholinylmethane}-3-oxo-18β-olean-12-en-28-oate [Compound 4]
- IC50 (DPP-IV): 0.0044 ± 0.0005 µM
- IC50 (PPAR): 0.0078 ± 0.0005 µM
- IC50 [3]: 0.087 ± 0.001 µM
- % Change in SG [1, 4]: −78.88%
- % Change in SG [1, 5]: −85.89%
- % Change in SG [1, 6]: −90.00%
- % Change in SG [1, 7]: −88.88%
- % Change in SG [2, 8]: −67.90%
- % Change in SG [2, 9]: −86.43%
- % Change in SG [2, 10]: −74.78%
- % Change in SG [2, 11]: −90.87%

Compound: methyl-2-{N-(morpholino) methane}-3β-hydroxy-3α-phenyl-18β-Olean-12-ene-28-oate [Compound 6]
- % Change in SG [1, 4]: −73.60%
- % Change in SG [1, 5]: −80.74%
- % Change in SG [1, 6]: −82.33%
- % Change in SG [1, 7]: −77.80%
- % Change in SG [2, 8]: −61.68%
- % Change in SG [2, 9]: −85.89%
- % Change in SG [2, 10]: −70.54%
- % Change in SG [2, 11]: −86.45%

Compound: methyl-2-{N-(morpholino)methane}-3-oxo-18β-olean-12-ene-28-oate [Compound 5]
- % Change in SG [1, 4]: −70.60%
- % Change in SG [1, 5]: −79.01%
- % Change in SG [1, 6]: −80.43%
- % Change in SG [1, 7]: −75.41%
- % Change in SG [2, 8]: −60.89%
- % Change in SG [2, 9]: −84.29%
- % Change in SG [2, 10]: −70.53%
- % Change in SG [2, 11]: −85.45%

Compound: methyl-2-{phenyl-(4-pyridyl)-methane}-3-oxo-18β-olean-12-en-28-oate [Compound 3]
- IC50 [3]: 0.123 ± 0.004 µM
- % Change in SG [1, 4]: −75.78%
- % Change in SG [1, 5]: −82.76%
- % Change in SG [1, 6]: −85.74%
- % Change in SG [1, 7]: −79.67%
- % Change in SG [2, 8]: −66.76%
- % Change in SG [2, 9]: −83.56%
- % Change in SG [2, 10]: −73.65%
- % Change in SG [2, 11]: −89.76%
